# Experimental data as given in the supplement of paper PMC10307832.
# Assays:
# Assay in all cases: relative viability (nuclei count vs DMSO), 5 days (fraction); higher = more cells survive
# [1] = compound: C1CC(C1)(C(=O)O)C(=O)O.[NH2-].[NH2-].[Pt+2] [Carboplatin]
# Procedure, shortened: (§1)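 Acceptance criteria were a control CV below 25% and at least one doubling per plate. Lung cancer cell lines in 1536-well plates got five library-drug doses (not always all listed) √10 apart by pinning and were left 5 days with no medium change. Viability divides treated-well nuclei by vehicle-well nuclei and is the median across plates. Nuclei were counted by MetaXpress from 4× Hoechst images.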
# [2] = compound: CC[C@H](C)N1C=C(C2=C(C=C(C=C21)C3=CN=C(C=C3)N4CCNCC4)C(=O)NCC5=C(C=C(NC5=O)C)C)C [GSK126]
# Procedure, shortened: as §1
# [3] = compound: NS(=O)(=O)OC[C@@H]1C[C@@H](n2ccc3c(N[C@H]4CCc5ccccc54)ncnc32)C[C@@H]1O [MLN4924]
# Procedure, shortened: as §1
# [4] = compound: CC[C@H](C)N1C=C(C2=C(C=C(C=C21)C3=CN=C(C=C3)N4CCNCC4)C(=O)NCC5=C(C=C(NC5=O)C)C)C [GSK126] + C[C@@H](Oc1cc(-c2cnn(C3CCNCC3)c2)cnc1N)c1c(Cl)ccc(F)c1Cl [Crizotinib] (partner 1 µM)
# Procedure, shortened: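 Medians of duplicate plates are given as relative viability. That measure is the nuclei count in treated wells divided by the count in vehicle wells. Counts were taken on 4× images of lung cancer cell lines in 1536-well plates, 5 days after pin-tool dosing the day after seeding with one drug alone or a fixed anchor-drug dose plus five library-drug doses (not always all listed) in √10 steps.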
cell line,measurement,setting,value
NCI-H1915,relative viability,[1]; 0.08 µM,1.03
same,relative viability,[1]; 0.253 µM,1.02
same,relative viability,[1]; 0.8 µM,0.971
same,relative viability,[1]; 2.53 µM,0.932
same,relative viability,[1]; 8 µM,0.737
same,relative viability,[2]; 0.08 µM,1.05
same,relative viability,[2]; 0.253 µM,0.978
same,relative viability,[2]; 0.8 µM,1.01
same,relative viability,[2]; 2.53 µM,0.973
same,relative viability,[2]; 8 µM,0.994
same,relative viability,[3]; 0.04 µM,0.958
same,relative viability,[3]; 0.1265 µM,0.911
same,relative viability,[3]; 0.4 µM,0.692
same,relative viability,[3]; 1.265 µM,0.219
same,relative viability,[3]; 4 µM,0.224
same,relative viability,[4]; first compound 0.08 µM,1.02
same,relative viability,[4]; first compound 0.253 µM,0.93
same,relative viability,[4]; first compound 0.8 µM,0.917
same,relative viability,[4]; first compound 2.53 µM,0.878
same,relative viability,[4]; first compound 8 µM,0.912
NCI-H1944,relative viability,[1]; 0.08 µM,0.887
same,relative viability,[1]; 0.253 µM,0.967
same,relative viability,[1]; 0.8 µM,0.922
same,relative viability,[1]; 2.53 µM,0.981
same,relative viability,[1]; 8 µM,0.644
same,relative viability,[2]; 0.08 µM,1.1
same,relative viability,[2]; 0.253 µM,0.902
same,relative viability,[2]; 0.8 µM,1
same,relative viability,[2]; 2.53 µM,0.998
same,relative viability,[2]; 8 µM,1.13
same,relative viability,[3]; 0.04 µM,0.975
same,relative viability,[3]; 0.1265 µM,0.788
same,relative viability,[3]; 0.4 µM,0.583
same,relative viability,[3]; 1.265 µM,0.176
same,relative viability,[3]; 4 µM,0.176
same,relative viability,[4]; first compound 0.08 µM,1.3
same,relative viability,[4]; first compound 0.253 µM,1.08
same,relative viability,[4]; first compound 0.8 µM,1.1
same,relative viability,[4]; first compound 2.53 µM,1.05
same,relative viability,[4]; first compound 8 µM,1.23
NCI-H1975,relative viability,[1]; 0.08 µM,1
same,relative viability,[1]; 0.253 µM,0.944
same,relative viability,[1]; 0.8 µM,0.968
same,relative viability,[1]; 2.53 µM,0.931
same,relative viability,[1]; 8 µM,0.9
same,relative viability,[2]; 0.08 µM,0.961
same,relative viability,[2]; 0.253 µM,0.888
same,relative viability,[2]; 0.8 µM,0.93
same,relative viability,[2]; 2.53 µM,0.923
same,relative viability,[2]; 8 µM,0.934
same,relative viability,[3]; 0.04 µM,0.96
same,relative viability,[3]; 0.1265 µM,1.14
same,relative viability,[3]; 0.4 µM,1.38
same,relative viability,[3]; 1.265 µM,0.843
same,relative viability,[3]; 4 µM,0.447
same,relative viability,[4]; first compound 0.08 µM,0.919
same,relative viability,[4]; first compound 0.253 µM,0.91
same,relative viability,[4]; first compound 0.8 µM,0.886
same,relative viability,[4]; first compound 2.53 µM,0.96
same,relative viability,[4]; first compound 8 µM,0.949
NCI-H1993,relative viability,[1]; 0.08 µM,0.988
same,relative viability,[1]; 0.253 µM,1.02
same,relative viability,[1]; 0.8 µM,0.967
same,relative viability,[1]; 2.53 µM,0.878
same,relative viability,[1]; 8 µM,0.8
same,relative viability,[2]; 0.08 µM,0.97
same,relative viability,[2]; 0.253 µM,0.982
same,relative viability,[2]; 0.8 µM,0.955
same,relative viability,[2]; 2.53 µM,1.02
same,relative viability,[2]; 8 µM,1.03
same,relative viability,[3]; 0.04 µM,0.877
same,relative viability,[3]; 0.1265 µM,0.758
same,relative viability,[3]; 0.4 µM,0.596
same,relative viability,[3]; 1.265 µM,0.531
same,relative viability,[3]; 4 µM,0.658
same,relative viability,[4]; first compound 0.08 µM,0.912
same,relative viability,[4]; first compound 0.253 µM,0.768
same,relative viability,[4]; first compound 0.8 µM,0.924
same,relative viability,[4]; first compound 2.53 µM,0.865
same,relative viability,[4]; first compound 8 µM,0.941
NCI-H2009,relative viability,[1]; 0.08 µM,1.05
same,relative viability,[1]; 0.253 µM,0.971
same,relative viability,[1]; 0.8 µM,0.95
same,relative viability,[1]; 2.53 µM,0.951
same,relative viability,[1]; 8 µM,0.683
same,relative viability,[2]; 0.08 µM,1.12
same,relative viability,[2]; 0.253 µM,0.997
same,relative viability,[2]; 0.8 µM,0.988
same,relative viability,[2]; 2.53 µM,0.988
same,relative viability,[2]; 8 µM,1.06
same,relative viability,[3]; 0.04 µM,0.823
same,relative viability,[3]; 0.1265 µM,0.439
same,relative viability,[3]; 0.4 µM,0.287
same,relative viability,[3]; 1.265 µM,0.136
same,relative viability,[3]; 4 µM,0.0977
same,relative viability,[4]; first compound 0.08 µM,1.08
same,relative viability,[4]; first compound 0.253 µM,0.982
same,relative viability,[4]; first compound 0.8 µM,1.06
same,relative viability,[4]; first compound 2.53 µM,0.968
same,relative viability,[4]; first compound 8 µM,1.06
NCI-H2023,relative viability,[1]; 0.08 µM,1.1
same,relative viability,[1]; 0.253 µM,1.08
same,relative viability,[1]; 0.8 µM,0.959
same,relative viability,[1]; 2.53 µM,0.572
same,relative viability,[1]; 8 µM,0.249
same,relative viability,[2]; 0.08 µM,1.13
same,relative viability,[2]; 0.253 µM,1.04
same,relative viability,[2]; 0.8 µM,1.02
same,relative viability,[2]; 2.53 µM,1.22
same,relative viability,[2]; 8 µM,1.09
same,relative viability,[3]; 0.04 µM,0.986
same,relative viability,[3]; 0.1265 µM,0.739
same,relative viability,[3]; 0.4 µM,0.207
same,relative viability,[3]; 1.265 µM,0.0741
same,relative viability,[3]; 4 µM,0.0639
same,relative viability,[4]; first compound 0.08 µM,0.839
same,relative viability,[4]; first compound 0.253 µM,0.678
same,relative viability,[4]; first compound 0.8 µM,0.747
same,relative viability,[4]; first compound 2.53 µM,0.74
same,relative viability,[4]; first compound 8 µM,0.747
NCI-H2085,relative viability,[1]; 0.08 µM,1.08
same,relative viability,[1]; 0.253 µM,1
same,relative viability,[1]; 0.8 µM,0.981
same,relative viability,[1]; 2.53 µM,1.01
same,relative viability,[1]; 8 µM,0.905
same,relative viability,[2]; 0.08 µM,1.06
same,relative viability,[2]; 0.253 µM,1.05
same,relative viability,[2]; 0.8 µM,0.958
same,relative viability,[2]; 2.53 µM,0.943
same,relative viability,[2]; 8 µM,1.02
same,relative viability,[3]; 0.04 µM,0.978
same,relative viability,[3]; 0.1265 µM,1.01
same,relative viability,[3]; 0.4 µM,1.12
same,relative viability,[3]; 1.265 µM,0.772
same,relative viability,[3]; 4 µM,0.541
same,relative viability,[4]; first compound 0.08 µM,0.879
same,relative viability,[4]; first compound 0.253 µM,0.966
same,relative viability,[4]; first compound 0.8 µM,0.951
same,relative viability,[4]; first compound 2.53 µM,0.778
same,relative viability,[4]; first compound 8 µM,0.887
NCI-H2087,relative viability,[1]; 0.08 µM,1.14
same,relative viability,[1]; 0.253 µM,1.21
same,relative viability,[1]; 0.8 µM,0.997
same,relative viability,[1]; 2.53 µM,0.999
same,relative viability,[1]; 8 µM,0.711
same,relative viability,[2]; 0.08 µM,1.18
same,relative viability,[2]; 0.253 µM,0.945
same,relative viability,[2]; 0.8 µM,1
same,relative viability,[2]; 2.53 µM,1.15
same,relative viability,[2]; 8 µM,1.17
same,relative viability,[3]; 0.04 µM,1.02
same,relative viability,[3]; 0.1265 µM,0.969
same,relative viability,[3]; 0.4 µM,0.491
same,relative viability,[3]; 1.265 µM,0.16
same,relative viability,[3]; 4 µM,0.0937
same,relative viability,[4]; first compound 0.08 µM,0.861
same,relative viability,[4]; first compound 0.253 µM,0.985
same,relative viability,[4]; first compound 0.8 µM,0.888
same,relative viability,[4]; first compound 2.53 µM,0.821
same,relative viability,[4]; first compound 8 µM,0.867
NCI-H2126,relative viability,[1]; 0.08 µM,1.05
same,relative viability,[1]; 0.253 µM,1.03
same,relative viability,[1]; 0.8 µM,1.02
same,relative viability,[1]; 2.53 µM,0.946
same,relative viability,[1]; 8 µM,0.948
same,relative viability,[2]; 0.08 µM,1.04
same,relative viability,[2]; 0.253 µM,1.02
same,relative viability,[2]; 0.8 µM,1.06
same,relative viability,[2]; 2.53 µM,1.07
same,relative viability,[2]; 8 µM,1
same,relative viability,[3]; 0.04 µM,1.03
same,relative viability,[3]; 0.1265 µM,1.02
same,relative viability,[3]; 0.4 µM,0.785
same,relative viability,[3]; 1.265 µM,0.459
same,relative viability,[3]; 4 µM,0.373
same,relative viability,[4]; first compound 0.08 µM,1.07
same,relative viability,[4]; first compound 0.253 µM,1.04
same,relative viability,[4]; first compound 0.8 µM,1.05
same,relative viability,[4]; first compound 2.53 µM,0.992
same,relative viability,[4]; first compound 8 µM,0.987
NCI-H2170,relative viability,[1]; 0.08 µM,0.957
same,relative viability,[1]; 0.253 µM,0.944
same,relative viability,[1]; 0.8 µM,0.972
same,relative viability,[1]; 2.53 µM,0.964
same,relative viability,[1]; 8 µM,0.864
same,relative viability,[2]; 0.08 µM,1.03
same,relative viability,[2]; 0.253 µM,1.05
same,relative viability,[2]; 0.8 µM,0.881
same,relative viability,[2]; 2.53 µM,1.03
same,relative viability,[2]; 8 µM,0.932
same,relative viability,[3]; 0.04 µM,1
same,relative viability,[3]; 0.1265 µM,0.92
same,relative viability,[3]; 0.4 µM,0.406
same,relative viability,[3]; 1.265 µM,0.164
same,relative viability,[3]; 4 µM,0.197
same,relative viability,[4]; first compound 0.08 µM,1.32
same,relative viability,[4]; first compound 0.253 µM,1.15
same,relative viability,[4]; first compound 0.8 µM,1.16
same,relative viability,[4]; first compound 2.53 µM,1.09
same,relative viability,[4]; first compound 8 µM,1.23
